The values that follow come from patent US11090305B2, “Methods and compositions to reduce oxidative stress” (University of Massachusetts, priority 2009, dated 2021).

The test system of one assay is NKT and γδT cells. Description: NKT and γδT cell populations (flow cytometry, immunostaining). It is filed as in vivo, mouse. Particulars: hypercholesterolemic mice, 4 weeks. From the text: (§1) All mice were purchased from Jackson Laboratories (Bar Harbor, Me.) and were maintained in the mouse barrier facility. Care of mice was in accordance with NIH guidelines and the Institutional Animal Care and Use Committee of the University of Massachusetts Medical School approved all protocols. Mice were kept on a 12 hr day/night schedule and were allowed free access to chow and water. ApoE^−/− and WT mice were fed standard mouse chow (5.4 g fat/100 g diet, 0% cholesterol). HCD mice were fed a diet with 10 g fat/100 g diet, […] (Research Diets, New Brunswick, N.J.). […] Azoxymethane (AOM) was given by intraperitoneal injection (10 mg/Kg weekly for 3 weeks); 1% dextran sodium sulfate was added to the drinking water for the Pt week after AOM treatment.
(§2) Cells were stained with monoclonal antibodies conjugated to various fluoroprobes. These antibodies included: Notch1, cKit (2B8), Sca-1 (E13-161.7), CD4 (L3T4), CD8 (53-6.72), CD90.1, CD25, CD44, TCRβ, NK1.1, γδTCR, CD45.1, CD45.2. The lineage cocktail consisted of CD4, CD8, B220 (RA3-6B2), TER-119, Mac-1 (MI/70), and Gr-1 (RB6-8C5). All antibodies were purchased from BD Bioscience (San Diego, Calif.). FACS analysis was carried out on a FACS Diva.
The colon and rectum was removed en bloc from each mouse and the number of polyps was identified using a dissecting microscope. Each polyp was frozen in OCT at −80° C. and cryosections (10 μM) cut. H&E staining was used to identify the histological grade of each polyp, assigned by a pathologist blinded to study condition. Standard immunostaining protocol was used to identify γδT cells (monoclonal antibody to γδTCR, DAPI counterstaining) and NKT cells (monoclonal antibodies to TCR and NK1.1, DAPI counterstaining). Sections were viewed with a Zeiss immunofluorescent microscope and Axiovert software.
(In general: A flow cytometer gives signals particle by particle.)

For assay [1], the system named is hematopoietic stem cells (HSCs). Put plainly: DCF-DA staining of HSCs from hypercholesterolemic mice (Example 6). The class given is in vivo, mouse. Particulars: ApoE^−/− and HCD mice, 100 mg/Kg i.p. every other day for 4 weeks.
Text: as §1, with “treatment. It is known that hypercholesterolemia induces oxidant stress in many cell types. […] FIGS. 49A-49C show hypercholesterolemia increases oxidant levels in hematopoietic stem cells. […] (B) Representative photomicrograph showing oxLDL-staining in HSC and BM-MNC from WT and ApoE^−/− mice. (C) Regression of mean polyp number/mouse on the % of HSC staining for DCF-DA. […] Statistical analysis was carried out using the means for each group. […] One of the principal means by which hypercholesterolemia induces oxidant stress is via the generation of oxidized low density lipoprotein (oxLDL).” for “treatment.”

A further assay has as its system p38 MAPK. Description: Phosphorylated (activated) p38 MAPK expression in HSCs. It is filed as in vivo, mouse. The source says: Activation of p38 MAPK by ROS has been reported in Atm^−/− mice and this event participates in ROS-induced loss of HSC quiescence. Expression of p38 MAPK was similar in HSCs from ApoE^−/−, HCD, and WT mice. However, expression of activated (phosphorylated) p38 MAPK is greater in HSCs from hypercholesterolemic mice than from WT mice (FIGS. 44A and 44B). FIGS. 44A-44C show p38 MAPK activation is greater in HSC from hypercholesterolemic mice. […] Neither treatment affected the outcome of competitive transplant with WT HSCs. m±sd, n=5 mice per group, *p<0.05 vs. WT, † p<0.05 vs. ApoE.

The test system of another assay is Notch1. Description: Notch1 expression in HSCs and lymphoid progenitors (Example 5). The class given is in vivo, mouse. Here is the method:
as §2
The Notch family is an evolutionarily conserved system of receptors and ligands that play a fundamental role in regulating cell-fate decision in many types of stem and progenitor cells, including HSCs. Notch1 plays a critical role in lymphocyte differentiation, wherein expression of Notch1 favors T cell differentiation. To clarify the effects of hypercholesterolemia on the expression Notch family, the expression of Notch family was screened in HSCs isolated from WT and ApoE^−/− mice. The percentage of HSCs expressing of Notch1 was higher in hypercholesterolemic than WT mice, whereas no differences in Notch2, Notch4, or Delta-like-1 were noted among groups (FIG. 47A). FIGS. 47A-47D show notch 1 expression is greater in HSCs from hypercholesterolemic mice. […] (B) Within the HSC population, a higher percentage of long term-HSCs expressed Notch1 than did short term-HSCs. This difference was evident in both WT and ApoE^−/− mice, although the percentage of short term-HSCs expressing Notch1 was twofold higher in ApoE^−/− than WT mice. […] (D) Treatment of ApoE^−/−, but not WT mice with SB203580 reduced the percentage of HSCs expressing Notch1. m±sd, n=5, *p<0.05 vs. WT, †p<0.05 vs. ApoE or HCD, p<0.05 vs. long-term HSCs.

A further assay concerns db/db MSC. Description: Differentiation of db/db MSC towards endothelial cells (CD31 staining). It is filed as cell-based, mouse. Particulars: endogenic medium. On the procedure:
Endothelial cells were identified by CD31 staining. m±sd, n=4, *P<0.05.
Adipocytes were identified by Oil Red O staining. m±sd, n=4, *p<0.05 vs control. […] Endothelial cells were identified by CD31 staining. m±sd, n=4, *p<0.05 vs control, #p<0.05 vs 5 nM.

Assay [2] relates to HSCs from hypercholesterolemic mice. Put plainly: H2O2 in lysates from freshly harvested HSCs. Details: species or system mouse. Particulars: ApoE and HCD mice, in vivo treatment. On the procedure:
HSCs were purified from bone marrow mononuclear cells by multi-parameter FACS sorting using the surface phenotype cKit^+Sca-1^+CD90.1^lowLin^−. A greater percentage of HSCs from ApoE^−/− and HCD mice stain with 2′,7′-dichlorofluorescein diacetate than WT KSL cells, indicating a higher oxidant level in cells from hypercholesterolemic mice. Two additional assays were carried out that confirmed this earlier finding: first, the level of H2O2 in HSC cell lysates, determined by spectrophotometry, was greater in ApoE^−/− and HCD mice than in WT mice (FIG. 42A).

Setting [3] is: ApoE^−/− mice, in vivo treatment.

SMILES strings stand for the structures.

Turning to `CC(=O)N[C@@H](CS)C(=O)O` [NAC, N-acetylcysteine], the “colonic resident populations of NKT and γδT cells” value in the assay on NKT and γδT cells (healthy colon) was “restored the colonic resident populations of NKT and γδT cells to WT levels”. Further, the “numbers of NKT and γδT cells in AOM-induced polyps” value with NKT and γδT cells is “significantly increased the numbers of NKT and γδT cells in all grades of AOM-induced polyps”. Further, in the assay on NKT and γδT cells, the “percentages of γδT cells and NKT cells in the thymus and peripheral blood” value is given as “reversed by in vivo treatment with NAC for 4 weeks”. In addition, the “DCF-DA staining in HSCs” value in assay [1] is “significantly reversed”. Further, the “expression of activated p38 in HSCs” value in the assay on p38 MAPK (setting [3]) is “significantly reduced expression of activated p38 in ApoE^−/− HSCs”; with p38 MAPK (WT mice), “had no effect on activated p38 expression in WT HSCs”. In addition, in the assay on Notch1 (setting [3]), the “percentages of pre-B cells and pro-T cells expressing Notch1” value is “these effects were reversed by in vivo treatment with NAC”. The “percentage of HSCs expressing Notch1” value in the assay on Notch1 (WT mice) is “no effect was noted in WT mice”; with Notch1 (hypercholesterolemic mice (ApoE^−/−, HCD), in vivo treatment) it was “significantly reduced the percentage of ApoE^−/− and HCD HSCs expressing Notch1”. Moreover, the “differentiation towards endothelial cells” value in the assay on db/db MSC is “increased differentiation towards endothelial cells”. In addition, in assay [2], the “H2O2 in HSC lysates” value was “significantly decreased by in vivo NAC treatment”.
